Reference: ChEMBL document CHEMBL1201862, “PubChem BioAssay data set” (2004)
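Five concentrations, 48 hours, 96-well plates. GI50 marks 50% less growth.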 Calls of active or inactive are those of the source. Rule as the data show it: active = GI50 up to about 1.1 µM and inactive = higher.

What was measured:
Experiment in all cases: NCI tumour cell line growth inhibition, 48 h
[1] = test system: DLD-1
[2] = test system: OVCAR-4
[3] = test system: DMS-273
[4] = test system: EKVX
[5] = test system: NCI-H522
[6] = test system: SNB-19
[7] = test system: SNB-75
[8] = test system: SF-295
[9] = test system: 786-0
[10] = test system: UACC-62
[11] = test system: HOP-18
[12] = test system: KM-20L2
[13] = test system: MOLT-4
[14] = test system: OVCAR-8
[15] = test system: NCI-H23
[16] = test system: CCRF-CEM
[17] = test system: HCT-15
[18] = test system: OVCAR-3
[19] = test system: SR
[20] = test system: SN12C
[21] = test system: SK-OV-3
[22] = test system: SF-539
[23] = test system: ACHN
[24] = test system: SNB-78
[25] = test system: UACC-257
[26] = test system: HL-60
[27] = test system: NCI-H460
[28] = test system: RXF 393
[29] = test system: HOP-62
[30] = test system: IGROV-1
[31] = test system: M14
[32] = test system: SF-268
[33] = test system: LXFL 529
[34] = test system: NCI-H226
[35] = test system: COLO 205
[36] = test system: KM12
[37] = test system: SW-620
[38] = test system: UO-31
[39] = test system: RPMI-8226
[40] = test system: A549
[41] = test system: Malme-3M
[42] = test system: SK-MEL-2
[43] = test system: DMS-114
[44] = test system: LOX IMVI
[45] = test system: TK-10
[46] = test system: HT-29
[47] = test system: HCT-116
[48] = test system: SK-MEL-28
[49] = test system: M19-MEL
[50] = test system: U-251
[51] = test system: K562
[52] = test system: HCC 2998
[53] = test system: HOP-92
[54] = test system: A498
[55] = test system: SK-MEL-5
[56] = test system: OVCAR-5
[57] = test system: CAKI-1

`Cc1c(/C=N/NC(=O)c2ccc(Cl)cc2)c(=O)n(-c2ccccc2)n1C` was tested, and the GI50 [1] was > 100 µM (inactive), the GI50 [2] was > 100 µM (inactive) and the GI50 [3] was > 100 µM (inactive). The GI50 [4] was > 100 µM (inactive), the GI50 [5] was > 100 µM (inactive) and the GI50 [6] was > 100 µM (inactive). For the same molecule, the GI50 [7] was > 100 µM (inactive), the GI50 [8] was > 100 µM (inactive) and the GI50 [9] was > 100 µM (inactive). For the same molecule, the GI50 [10] was > 100 µM (inactive), the GI50 [11] was > 100 µM (inactive) and the GI50 [12] was > 100 µM (inactive). The GI50 [13] was > 100 µM (inactive), the GI50 [14] was > 100 µM (inactive) and the GI50 [15] was > 100 µM (inactive). For the same molecule, the GI50 [16] was > 100 µM (inactive), the GI50 [17] was over 100 µM and the GI50 [18] was > 100 µM (inactive). The GI50 [19] was > 100 µM (inactive), the GI50 [20] was > 100 µM (inactive) and the GI50 [21] was > 100 µM (inactive). For the same molecule, the GI50 [22] was > 100 µM (inactive), the GI50 [23] was > 100 µM (inactive) and the GI50 [24] was > 100 µM (inactive). For the same molecule, the GI50 [25] was > 100 µM (inactive), the GI50 [26] was > 100 µM (inactive) and the GI50 [27] was > 100 µM (inactive). The GI50 [28] was > 100 µM (inactive), the GI50 [29] was > 100 µM (inactive) and the GI50 [30] was > 100 µM (inactive). For the same molecule, the GI50 [31] was > 100 µM (inactive), the GI50 [32] was > 100 µM (inactive) and the GI50 [33] was > 100 µM (inactive). The GI50 [34] was > 100 µM (inactive), the GI50 [35] was > 100 µM (inactive) and the GI50 [36] was > 100 µM (inactive). For the same molecule, the GI50 [37] was > 100 µM (inactive), the GI50 [38] was 95.5 µM (inactive) and the GI50 [39] was > 100 µM (inactive). For the same molecule, the GI50 [40] was > 100 µM (inactive), the GI50 [41] was > 100 µM (inactive) and the GI50 [42] was > 100 µM (inactive). For the same molecule, the GI50 [43] was > 100 µM (inactive), the GI50 [44] was > 100 µM (inactive) and the GI50 [45] was > 100 µM (inactive). The GI50 [46] was > 100 µM (inactive), the GI50 [47] was > 100 µM (inactive) and the GI50 [48] was > 100 µM (inactive). For the same molecule, the GI50 [49] was > 100 µM (inactive), the GI50 [50] was > 100 µM (inactive) and the GI50 [51] was > 100 µM (inactive). For the same molecule, the GI50 [52] was > 100 µM (inactive) and the GI50 [53] was > 100 µM (inactive).
In the case of `Nc1nc2ncn(CCO)c2c(=S)[nH]1`, the GI50 [1] is reported as > 100 µM (inactive), the GI50 [2] is reported as > 100 µM (inactive) and the GI50 [3] is reported as > 100 µM (inactive). For the same molecule, the GI50 [4] was > 100 µM (inactive), the GI50 [5] was > 100 µM (inactive) and the GI50 [6] was > 100 µM (inactive). The GI50 [7] was > 100 µM (inactive), the GI50 [8] was > 100 µM (inactive) and the GI50 [9] was > 100 µM (inactive). The GI50 [10] was > 100 µM (inactive), the GI50 [11] was > 100 µM (inactive) and the GI50 [12] was > 100 µM (inactive). The GI50 [14] was > 100 µM (inactive), the GI50 [16] was > 100 µM (inactive) and the GI50 [17] was over 100 µM. For the same molecule, the GI50 [18] was > 100 µM (inactive), the GI50 [20] was > 100 µM (inactive) and the GI50 [21] was > 100 µM (inactive). For the same molecule, the GI50 [22] was > 100 µM (inactive), the GI50 [23] was > 100 µM (inactive) and the GI50 [24] was > 100 µM (inactive). For the same molecule, the GI50 [25] was > 100 µM (inactive), the GI50 [26] was > 100 µM (inactive) and the GI50 [27] was > 100 µM (inactive). The GI50 [28] was > 100 µM (inactive), the GI50 [29] was > 100 µM (inactive) and the GI50 [30] was > 100 µM (inactive). For the same molecule, the GI50 [31] was > 100 µM (inactive), the GI50 [32] was > 100 µM (inactive) and the GI50 [33] was > 100 µM (inactive). The GI50 [34] was > 100 µM (inactive), the GI50 [35] was > 100 µM (inactive) and the GI50 [36] was > 100 µM (inactive). For the same molecule, the GI50 [37] was > 100 µM (inactive), the GI50 [38] was > 100 µM (inactive) and the GI50 [39] was > 100 µM (inactive). The GI50 [40] was > 100 µM (inactive), the GI50 [41] was > 100 µM (inactive) and the GI50 [54] was > 100 µM (inactive). The GI50 [55] was > 100 µM (inactive), the GI50 [42] was > 100 µM (inactive) and the GI50 [43] was > 100 µM (inactive). The GI50 [44] was > 100 µM (inactive), the GI50 [45] was > 100 µM (inactive) and the GI50 [46] was > 100 µM (inactive). The GI50 [56] was > 100 µM (inactive), the GI50 [47] was > 100 µM (inactive) and the GI50 [48] was > 100 µM (inactive). The GI50 [49] was > 100 µM (inactive), the GI50 [57] was > 100 µM (inactive) and the GI50 [50] was > 100 µM (inactive). For the same molecule, the GI50 [51] was > 100 µM (inactive), the GI50 [52] was > 100 µM (inactive) and the GI50 [53] was > 100 µM (inactive).
